Results as given in the NIST ThermoML archive (doi:10.1021/je3013028).
Numbers after ± are expanded uncertainties. One block for each compound: values may come before it.

Assays:
[1] = refractive index (Na D-line) (dimensionless); details: 298.15 K; 101.33 kPa; Liquid; Standard Abbe refractometry
[2] = Liquid, Ebulliometric method (Recirculating still)

Structure (SMILES): CCCS [1-propanethiol]
refractive index [1]: 1.4353 ± 0.0003

Structure (SMILES): CCSCC [3-thiapentane]
vapor or sublimation pressure ([2]; 336.63 K): 39.7 ± 0.8 kPa | refractive index [1]: 1.43998 ± 0.00032

Structure (SMILES): C=CCCCC [hex-1-ene]
vapor or sublimation pressure ([2]; 328.15 K): 77 ± 0.5 kPa | vapor or sublimation pressure ([2]; 335.74 K): 98.7 ± 0.6 kPa | vapor or sublimation pressure ([2]; 336.09 K): 99.8 ± 0.6 kPa | refractive index [1]: 1.3851 ± 0.0003

Structure (SMILES): CC(C)(C)S [2-methyl-2-propanethiol]
vapor or sublimation pressure ([2]; 336.69 K): 98.5 ± 0.9 kPa | refractive index [1]: 1.42 ± 0.00031

Results, then the compound that gave them:

vapor or sublimation pressure ([2]; 308.14 K): 16.9 ± 0.8 kPa | vapor or sublimation pressure ([2]; 335.63 K): 49.4 ± 0.8 kPa | refractive index [1]: 1.52869 ± 0.00031
Structure (SMILES): c1ccsc1 [thiophene]

vapor or sublimation pressure ([2]; 308.14 K): 786.6 ± 3.5 kPa | vapor or sublimation pressure ([2]; 335.63 K): 1540 ± 6.2 kPa | vapor or sublimation pressure ([2]; 336.63 K): 1572.2 ± 7.7 kPa | vapor or sublimation pressure ([2]; 336.7 K): 1572.2 ± 7.7 kPa
Structure (SMILES): COC [dimethyl ether]
